In patent US12708630B2, “Combined therapy of 4′-thio-5-aza-2′-deoxycytidine and Venetoclax” (PINOTBIO, INC., priority 2021, dated 2026):
pIC50: −log10 of the molar value.

Columns and labels:
Assay in all cases: drug activity profiling cytotoxicity
Type in all cases: cell-based
[1] = test system: A-673; conditions: Homo sapiens, A673; A-673 cell line, Sarcoma; read-out: Aza-T-dCyd IC50
Method in brief: (§1)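 Each line's cytotoxic response to Aza-T-dCyd was recorded within a 200-line profiling study designed to find predictive markers.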

[2] = test system: A427; conditions: Homo sapiens, A-427; A427 cell line, Lung (NSCLC); read-out: Aza-T-dCyd IC50
Method in brief: as §1

[3] = test system: A498; conditions: Homo sapiens; A498 cell line, Kidney; read-out: Aza-T-dCyd IC50
Method in brief: as §1

[4] = test system: A549; conditions: Homo sapiens; A549 cell line, Lung (NSCLC); read-out: Aza-T-dCyd IC50
Method in brief: as §1

[5] = test system: AsPC-1; conditions: Homo sapiens, ASPC1; AsPC-1 cell line, Pancreas; read-out: Aza-T-dCyd IC50
Method in brief: as §1

[6] = test system: BFTC-905; conditions: Homo sapiens; BFTC-905 cell line, Bladder; read-out: Aza-T-dCyd IC50
Method in brief: as §1

[7] = test system: BHT-101; conditions: Homo sapiens; BHT-101 cell line, Endocrine (Thyroid); read-out: Aza-T-dCyd IC50
Method in brief: as §1

[8] = test system: BT20; conditions: Homo sapiens, BT-20; BT20 cell line, Breast; read-out: Aza-T-dCyd IC50
Method in brief: as §1

[9] = test system: Capan-1; conditions: Homo sapiens; Capan-1 cell line, Pancreas; read-out: Aza-T-dCyd IC50
Method in brief: as §1

[10] = test system: Colo 205; conditions: Homo sapiens; Colo 205 cell line, Colon; read-out: Aza-T-dCyd IC50
Method in brief: as §1

[11] = test system: DLD-1; conditions: Homo sapiens; DLD-1 cell line, Colon; read-out: Aza-T-dCyd IC50
Method in brief: as §1

[12] = test system: DMS114; conditions: Homo sapiens, DMS-114; DMS114 cell line, Lung (SCLC); read-out: Aza-T-dCyd IC50
Method in brief: as §1

[13] = test system: EFM-19; conditions: Homo sapiens; EFM-19 cell line, Breast; read-out: Aza-T-dCyd IC50
Method in brief: as §1

[14] = test system: EM-2; conditions: Homo sapiens; EM-2 cell line, CML; read-out: Aza-T-dCyd IC50
Method in brief: as §1

[15] = test system: G-361; conditions: Homo sapiens; G-361 cell line, Skin (Melanoma); read-out: Aza-T-dCyd IC50
Method in brief: as §1

[16] = test system: GA-10; conditions: Homo sapiens; GA-10 cell line, Burkitt's lymphoma; read-out: Aza-T-dCyd IC50
Method in brief: as §1

[17] = test system: HCT-15; conditions: Homo sapiens; HCT-15 cell line, Colon; read-out: Aza-T-dCyd IC50
Method in brief: as §1

[18] = test system: HPAF-II; conditions: Homo sapiens; HPAF-II cell line, Pancreas; read-out: Aza-T-dCyd IC50
Method in brief: as §1

[19] = test system: HT-29; conditions: Homo sapiens; HT-29 cell line, Colon; read-out: Aza-T-dCyd IC50
Method in brief: as §1

[20] = test system: HT1376; conditions: Homo sapiens, HT-1376; HT1376 cell line, Bladder; read-out: Aza-T-dCyd IC50
Method in brief: as §1

[21] = test system: JAR; conditions: JAR cell line, Placenta; read-out: Aza-T-dCyd IC50
Method in brief: as §1

[22] = test system: KG-1; conditions: Homo sapiens; KG-1 cell line, AML; read-out: Aza-T-dCyd IC50
Method in brief: as §1

[23] = test system: MOLT-4; conditions: Homo sapiens; MOLT-4 cell line, ALL; read-out: Aza-T-dCyd IC50
Method in brief: as §1

[24] = test system: MS751; conditions: MS751 cell line, Female GU (Cervix); read-out: Aza-T-dCyd IC50
Method in brief: as §1

[25] = test system: Mia PaCa-2; conditions: Homo sapiens; Mia PaCa-2 cell line, Pancreas; read-out: Aza-T-dCyd IC50
Method in brief: as §1

[26] = test system: NALM-6; conditions: Homo sapiens; NALM-6 cell line, ALL; read-out: Aza-T-dCyd IC50
Method in brief: as §1

[27] = test system: PC-3; conditions: Homo sapiens; PC-3 cell line, Prostate; read-out: Aza-T-dCyd IC50
Method in brief: as §1

[28] = test system: RPMI 8226; conditions: Homo sapiens; RPMI 8226 cell line, B-cell myeloma; read-out: Aza-T-dCyd IC50
Method in brief: as §1

[29] = test system: SW620; conditions: Homo sapiens, SW-620; SW620 cell line, Colon; read-out: Aza-T-dCyd IC50
Method in brief: as §1

[30] = test system: SW982; conditions: Homo sapiens; SW982 cell line, Sarcoma; read-out: Aza-T-dCyd IC50
Method in brief: as §1

[31] = test system: UM-UC-3; conditions: Homo sapiens, UMUC3; UM-UC-3 cell line, Bladder; read-out: Aza-T-dCyd IC50
Method in brief: as §1

With `Nc1ncn([C@H]2CC(O)[C@@H](CO)S2)c(=O)n1` (stereo partly shown) [Aza-T-dCyd, 4′-thio-5-aza-2′-deoxycytidine] the pIC50 [1] was 6.16, the pIC50 [2] was 7.11 and the pIC50 [3] was 7.13. For the same compound, the pIC50 [4] was 6.72, the pIC50 [5] was 5.67 and the pIC50 [6] was 6.92. For the same compound, the pIC50 [7] was 6.63, the pIC50 [8] was < 5.00 and the pIC50 [9] was 5.48. The pIC50 [10] was 7.09, the pIC50 [11] was 6.66 and the pIC50 [12] was 5.66. The pIC50 [13] was 5.40, the pIC50 [14] was 6.59 and the pIC50 [15] was 5.97. The pIC50 [16] was 7.47, the pIC50 [17] was 5.99 and the pIC50 [18] was 6.13. The pIC50 [19] was 6.49, the pIC50 [20] was 5.48 and the pIC50 [21] was 6.53. For the same compound, the pIC50 [22] was 6.34, the pIC50 [23] was 7.46 and the pIC50 [24] was < 5.00. The pIC50 [25] was 6.06, the pIC50 [26] was 7.47 and the pIC50 [27] was 6.36. The pIC50 [28] was 5.49, the pIC50 [29] was 6.63 and the pIC50 [30] was 6.77. It also gave a pIC50 [31] of 6.54.
